Reference: patent US8841456B2, “1,5-naphthyridine derivative or salt thereof” (FUJIFILM Corporation, priority 2011, dated 2014)
Where two headings read alike, the source gives them in different places.

Legend:
[1] = biological target: T1, glutathione S-transferase (GST)-fusion human ERK2 protein (Homo sapiens, UniProt P28482); test: ERK2 enzyme assay (LabChip mobility shift); assay type: biochemical; settings: 2 nM ERK2, 4.25 μM FL-Peptide 8, 43 μM ATP
T1 construct: purchased Carna Biosciences, Inc; host or cells: E. coli expression system
T1 sequence (P28482 whole entry, the tested form may be a part): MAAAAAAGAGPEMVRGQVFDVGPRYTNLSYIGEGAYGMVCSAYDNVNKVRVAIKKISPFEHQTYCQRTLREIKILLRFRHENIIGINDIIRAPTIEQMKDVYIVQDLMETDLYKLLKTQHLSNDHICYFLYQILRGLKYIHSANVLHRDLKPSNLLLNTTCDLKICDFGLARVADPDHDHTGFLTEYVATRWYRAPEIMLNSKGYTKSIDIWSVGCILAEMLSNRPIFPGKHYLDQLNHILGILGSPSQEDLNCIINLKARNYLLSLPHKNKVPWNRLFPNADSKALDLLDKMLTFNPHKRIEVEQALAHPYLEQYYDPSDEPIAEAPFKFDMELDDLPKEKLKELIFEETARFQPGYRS
Method: Evaluation of the ERK2 inhibitory activity of the compound of the present invention was carried out according to the method as described below.
For the ERK2 enzyme assay, a glutathione S-transferase (GST)-fusion human ERK2 protein (Carna Biosciences, Inc.) produced using an E. coli expression system was used.
12 μL of the reaction solution (2 nM ERK2, 100 mM Hepes, 10 mM MgCl2, 1.5 mM DTT, 0.003% Brij35, pH 7.5) including the ERK2 protein and a test compound at a predetermined concentration was incubatedat room temperature for 15 minutes. Thereafter, 3 μL of a mixed solution of FL-Peptide 8 (5-FAM-IPTSPITTTYFFFKKK-COOH) (Caliper Lifescience) which was a substrate and ATP(SIGMA-ALDLICH) were added thereto to a final concentration of 4.25 μM and 43 μM, respectively. The reaction solution was further incubated at 25° C. for 120 minutes to carry out an enzyme reaction.
The enzyme reaction was stopped by adding 27 μL of a reaction-stopping solution (100 mM HEPES, 11.2 mM EDTA, 5.6% Brij35, pH 7.5) including a 0.5% Coating reagent 8 (PerkinElmer, Inc.) after the reaction. Thereafter, non-phosphorylated peptides and phosphorylated peptides were separated using LabChip Ez Reader (Caliper LifeScience, Inc.) to quantify the proportion of phosphorylated peptides.
(§1) The inhibitory activity of the compounds was evaluated using an IC50 (50% inhibitory concentration). The IC50 was calculated using XLfit (IDBS).

[2] = biological target: T2, human PI3Kα protein (Homo sapiens, UniProt P42336); test: PI3Kα enzyme assay (ADP-Glo kinase assay); assay type: biochemical; settings: 3 nM PI3Kα, 50 μM PIP2, 100 μM ATP
T2 construct: purchased Carna Biosciences, Inc; host or cells: Baculovirus expression system
T2 sequence (P42336 whole entry): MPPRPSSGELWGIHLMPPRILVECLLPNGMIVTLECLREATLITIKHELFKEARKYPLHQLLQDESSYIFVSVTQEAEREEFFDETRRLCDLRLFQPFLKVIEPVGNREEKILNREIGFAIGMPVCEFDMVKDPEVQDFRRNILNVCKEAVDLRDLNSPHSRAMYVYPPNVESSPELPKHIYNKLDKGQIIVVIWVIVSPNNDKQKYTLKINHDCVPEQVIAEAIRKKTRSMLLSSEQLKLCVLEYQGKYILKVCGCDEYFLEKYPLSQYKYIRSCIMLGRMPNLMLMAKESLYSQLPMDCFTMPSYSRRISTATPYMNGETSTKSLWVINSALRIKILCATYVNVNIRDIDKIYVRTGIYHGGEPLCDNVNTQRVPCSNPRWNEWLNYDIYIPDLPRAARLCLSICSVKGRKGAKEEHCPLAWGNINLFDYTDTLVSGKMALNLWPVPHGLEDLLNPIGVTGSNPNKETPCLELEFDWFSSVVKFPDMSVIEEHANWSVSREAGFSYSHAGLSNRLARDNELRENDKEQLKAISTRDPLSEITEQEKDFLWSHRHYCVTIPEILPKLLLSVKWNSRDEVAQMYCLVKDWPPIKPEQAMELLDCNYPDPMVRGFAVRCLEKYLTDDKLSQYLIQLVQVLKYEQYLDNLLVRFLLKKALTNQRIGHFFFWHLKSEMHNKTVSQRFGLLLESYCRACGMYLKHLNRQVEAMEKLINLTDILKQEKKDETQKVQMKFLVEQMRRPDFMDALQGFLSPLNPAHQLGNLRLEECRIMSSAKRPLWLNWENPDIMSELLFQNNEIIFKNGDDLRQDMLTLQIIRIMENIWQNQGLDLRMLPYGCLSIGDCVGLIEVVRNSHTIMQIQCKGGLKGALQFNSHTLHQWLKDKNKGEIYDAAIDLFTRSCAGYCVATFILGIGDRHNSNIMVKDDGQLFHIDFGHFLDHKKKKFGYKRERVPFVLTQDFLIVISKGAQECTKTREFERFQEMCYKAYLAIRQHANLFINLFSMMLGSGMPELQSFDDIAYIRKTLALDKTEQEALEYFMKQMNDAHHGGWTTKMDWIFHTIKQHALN
T2 sequence (P27986 whole entry partner): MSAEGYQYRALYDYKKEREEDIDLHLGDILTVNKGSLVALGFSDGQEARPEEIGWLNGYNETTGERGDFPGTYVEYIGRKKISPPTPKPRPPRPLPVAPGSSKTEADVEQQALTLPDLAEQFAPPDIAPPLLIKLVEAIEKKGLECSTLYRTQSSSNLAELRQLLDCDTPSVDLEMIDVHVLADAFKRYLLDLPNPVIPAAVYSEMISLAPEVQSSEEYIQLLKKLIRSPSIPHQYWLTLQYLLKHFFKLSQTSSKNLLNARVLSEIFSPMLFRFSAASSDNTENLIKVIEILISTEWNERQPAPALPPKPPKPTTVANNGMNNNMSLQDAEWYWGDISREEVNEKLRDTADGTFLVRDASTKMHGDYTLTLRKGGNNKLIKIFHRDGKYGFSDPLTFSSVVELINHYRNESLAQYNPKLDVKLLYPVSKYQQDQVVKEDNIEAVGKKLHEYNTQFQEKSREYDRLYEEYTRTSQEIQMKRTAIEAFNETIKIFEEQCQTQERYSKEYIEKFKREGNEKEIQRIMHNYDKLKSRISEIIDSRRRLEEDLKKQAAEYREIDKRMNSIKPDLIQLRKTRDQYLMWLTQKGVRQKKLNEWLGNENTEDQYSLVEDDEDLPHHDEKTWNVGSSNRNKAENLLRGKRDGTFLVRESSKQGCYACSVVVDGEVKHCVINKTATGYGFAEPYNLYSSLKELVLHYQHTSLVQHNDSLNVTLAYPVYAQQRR
Method: Evaluation of the PI3Kα inhibitory activity of the compound of the present invention was carried out according to the method as described below.
For the PI3Kα enzyme assay, biotinylated product of a human PI3Kα protein produced using a Baculovirus expression system (Carna Biosciences, Inc.) was used. Further, for the detection of the enzyme activity, an ADP-Glo kinase assay (PROMEGA Corporation) was used.
10 μL of a reaction solution (3 nM PI3Kα, 40 mM Tris-HCl, 20 mM MgCl2, 0.1% BSA, pH 7.5) including the human PI3Kα protein and a test compound at a predetermined concentration was incubated at room temperature for 15 minutes. Thereafter, 5 μL of a mixed solution of L-α-Phosphatidylinositol 4,5-diphosphate (PIP2) (SIGMA-ALDLICH) which was a substrate and ATP(SIGMA-ALDLICH) was added thereto to a final concentration of 50 μM and 100 μM, respectively, and the reaction solution was further incubated at 25° C. for 60 minutes to carry out an enzyme reaction.
After the reaction, 15 μL of an ADP-Glo reagent (PROMEGA Corporation) was added and the resulting liquid was incubated at room temperature for 60 minutes, whereby the enzyme reaction was stopped. Thereafter, after further adding 30 μL of a Kinase Detection Reagent (PROMEGA Corporation) and standing the resulting solution at room temperature for 40 minutes, ADP produced by the enzyme reaction was quantified by luminescence intensity.
For the measurement of luminescence intensity, EnVision (PerkinElmer, Inc.) was used.
as §1

[3] = IC50 class, read-out: ERK2 Inhibitory Activity
[4] = IC50 class, read-out: PI3Kα Inhibitory Activity

Structure (SMILES)	IC50 [1, 3]	IC50 [2, 4]	IC50 ([1]; read-out: ERK2, IC50)	IC50 ([2]; read-out: PI3Kα, IC50)
CO[C@H]1CCC[C@@H]1NC(=O)Nc1ccc2ncc(-c3cn[nH]c3)cc2n1 [Compound 0194]	< 100 nM	100 to 1000 nM		
CS(=O)(=O)Nc1cccc(-c2cnc3ccc(NC(=O)NC4CCCC4)nc3c2)c1 [Compound 0035]	< 100 nM	< 100 nM		
O=C(Nc1ccc2ncc(-c3cn[nH]n3)cc2n1)NC1CCCC1 [Compound 0156]	< 100 nM	< 100 nM		
S=C(Nc1ccc2ncc(-c3cnn(CCN4CCNCC4)c3)cc2n1)NC1CCCC1 [Compound 0222]	< 100 nM	< 100 nM		
O=C(Nc1ccc2ncc(-c3ccncc3)cc2n1)NC1CCCC1 [Compound 0007]	< 100 nM	< 100 nM		
O=C(Nc1ccc2ncc(Oc3cnccn3)cc2n1)NC1CCCC1 [Compound 0224]	1000 to 10000 nM	100 to 1000 nM		
COC(=O)C#Cc1cnc2ccc(NC(=O)NC3CCCC3)nc2c1 [Compound 0127]	1000 to 10000 nM	100 to 1000 nM		
O=C(Nc1ccc2ncc(-c3cnn(C4CNC4)c3)cc2n1)NC1CCCC1 [Compound 0143]	100 to 1000 nM	< 100 nM		
CN(CCNC(=O)Nc1ccc2ncc(-c3cn[nH]c3)cc2n1)Cc1ccccc1 [Compound 0108]	< 100 nM	100 to 1000 nM		
CC(C)OCCNC(=O)Nc1ccc2ncc(-c3cn[nH]c3)cc2n1 [Compound 0099]	< 100 nM	100 to 1000 nM		
COc1cc(-c2cnc3ccc(NC(=O)NC4CCCC4)nc3c2)cnc1O [Compound 0015]	< 100 nM	< 100 nM		
CN1CCN(CCCn2cc(-c3cnc4ccc(NC(=O)NC5(C)CCCC5)nc4c3)cn2)CC1 [Compound 0257]	100 to 1000 nM	< 100 nM		
COc1ccccc1CCCCNC(=O)Nc1ccc2ncc(-c3cn[nH]c3)cc2n1 [Compound 0168]	< 100 nM	< 100 nM		
CN(CCO)CCn1cc(-c2cnc3ccc(NC(=O)NC4CCCC4)nc3c2)cn1 [Compound 0045]	< 100 nM	< 100 nM		
COCCN(CCOC)CCn1cc(-c2cnc3ccc(NC(=O)NC4CCCC4)nc3c2)cn1 [Compound 0048]	< 100 nM	< 100 nM		
O=C(NCC1CCCC1)Nc1ccc2ncc(-c3cn[nH]c3)cc2n1 [Compound 0081]	< 100 nM	< 100 nM		
O=C(NCCCCc1ccccc1)Nc1ccc2ncc(-c3cnn(CCCN4CCOCC4)c3)cc2n1 [Compound 0203]	< 100 nM	< 100 nM		
O=C(NCCc1c[nH]c2ccccc12)Nc1ccc2ncc(-c3cn[nH]c3)cc2n1 [Compound 0112]	< 100 nM	100 to 1000 nM		
O=C(Nc1ccc2ncc(Nc3cn[nH]c3)cc2n1)NC1CCCC1 [Compound 0125]	100 to 1000 nM	< 100 nM	324 nM	< 3 nM
O=C(Nc1ccc2ncc(-c3cccnc3)cc2n1)NC1CCCC1 [Compound 0005]	100 to 1000 nM	100 to 1000 nM		
COc1ccc(C(=O)Nc2cnc3ccc(NC(=O)NC4CCCC4)nc3c2)cc1 [Compound 0135]	> 10000 nM	< 100 nM		
CC(C)N1CCC(n2cc(-c3cnc4ccc(NC(=O)NC5CCCC5)nc4c3)cn2)CC1 [Compound 0231]	100 to 1000 nM	< 100 nM		
S=C(Nc1ccc2ncc(-c3cnn(CCN4CCOCC4)c3)cc2n1)NC1CCCC1 [Compound 0138]	< 100 nM	< 100 nM		
O=C(Nc1ccc2ncc(-c3cnn(CCN4CCCCC4)c3)cc2n1)NC1CCCC1 [Compound 0036]	< 100 nM	< 100 nM		
COc1cc(-c2cnc3ccc(NC(=O)NC4CCCC4)nc3c2)ccc1O [Compound 0001]	< 100 nM	< 100 nM		
CN1CC(Cn2cc(-c3cnc4ccc(NC(=O)NC5CCCC5)nc4c3)cn2)C1 [Compound 0147]	< 100 nM	< 100 nM		

Structure (SMILES)	IC50 [1, 3]	IC50 [2, 4]	IC50 ([1]; read-out: ERK2, IC50)	IC50 ([2]; read-out: PI3Kα, IC50)
O=C(NCCn1cnc2ccccc21)Nc1ccc2ncc(-c3cn[nH]c3)cc2n1 [Compound 0111]	100 to 1000 nM	1000 to 10000 nM		
O=C(Nc1ccc2ncc(-c3cn[nH]c3)cc2n1)NC1C[C@H]2CC[C@@H]1C2 (stereo partly drawn) [Compound 0068]	< 100 nM	< 100 nM	4 nM	30 nM
CN1CC(n2cc(-c3cnc4ccc(NC(=O)NC5CCCC5)nc4c3)cn2)C1 [Compound 0145]	100 to 1000 nM	< 100 nM		
CN(C)Cc1nn(C)cc1-c1cnc2ccc(NC(=O)NC3CCCC3)nc2c1 [Compound 0217]	100 to 1000 nM	< 100 nM		
CCOC(=O)c1nn(C)cc1-c1cnc2ccc(NC(=O)NC3CCCC3)nc2c1 [Compound 0215]	100 to 1000 nM	< 100 nM		
C[C@@H]1CN(c2cnc3ccc(NC(=O)NC4CCCC4)nc3c2)C[C@H](C)O1 [Compound 0085]	100 to 1000 nM	< 100 nM		
COCCNc1cnc2ccc(NC(=O)NC3CCCC3)nc2c1 [Compound 0010]	1000 to 10000 nM	< 100 nM		
COC1CN(c2cnc3ccc(NC(=O)NC4CCCC4)nc3c2)C1 [Compound 0242]	100 to 1000 nM	100 to 1000 nM		
CC(C)(C)OC(=O)N1CCN(c2cnc3ccc(NC(=O)NC4CCCC4)nc3c2)CC1 [Compound 0012]	1000 to 10000 nM	100 to 1000 nM		
CC(C)(C)OC(=O)n1cc(-c2cnc3ccc(NC(=O)NC4CCCc5ccccc54)nc3c2)cn1 (stereo not drawn) [Compound 0066]	< 100 nM	1000 to 10000 nM		
O=C(Nc1ccc2ncc(Nc3cnccn3)cc2n1)NC1CCCC1 [Compound 0140]	100 to 1000 nM	< 100 nM		
COc1ccc(Nc2cnc3ccc(NC(=O)NC4CCCC4)nc3c2)cc1OC [Compound 0030]	> 10000 nM	< 100 nM		
COc1ccc(CCCCNC(=O)Nc2ccc3ncc(-c4cn[nH]c4)cc3n2)cc1 [Compound 0173]	< 100 nM	100 to 1000 nM		
O=C(Nc1ccc2ncc(-c3cccc(O)c3)cc2n1)NC1CCCC1 [Compound 0033]	< 100 nM	100 to 1000 nM		
COCCNCCn1cc(-c2cnc3ccc(NC(=O)NC4CCCC4)nc3c2)cn1 [Compound 0047]	100 to 1000 nM	< 100 nM		
O=C(Nc1ccc2ncc(-c3cnn(CCN4CCOCC4)c3)cc2n1)NC1C[C@H]2CC[C@@H]1C2 (stereo partly drawn) [Compound 0114]	< 100 nM	< 100 nM		
CN(C)CCn1cc(-c2cnc3ccc(NC(=S)N[C@@H]4C[C@H]5CC[C@@H]4C5)nc3c2)cn1 [Compound 0213]	< 100 nM	100 to 1000 nM		
O=C(Nc1ccc2ncc(NC(=O)c3ccccc3)cc2n1)NC1CCCC1 [Compound 0134]	1000 to 10000 nM	< 100 nM		
CC(C)(C)OC(=O)N1CCN(CCCn2cc(-c3cnc4ccc(NC(=O)NC5CCCC5)nc4c3)cn2)CC1 [Compound 0211]	< 100 nM	< 100 nM		
CN(C)CCn1cc(-c2cnc3ccc(NC(=S)NC4CCCC4)nc3c2)cn1 [Compound 0209]	< 100 nM	< 100 nM		
COc1cc(Nc2cnc3ccc(NC(=O)NC4CCCC4)nc3c2)cc(OC)c1 [Compound 0031]	1000 to 10000 nM	< 100 nM		
O=C(Nc1ccc2ncc(CN3CCOCC3)cc2n1)NC1CCCC1 [Compound 0132]	1000 to 10000 nM	1000 to 10000 nM		
O=C(Nc1ccc2ncc(-c3cnc4[nH]ccc4c3)cc2n1)NC1CCCC1 [Compound 0123]	1000 to 10000 nM	100 to 1000 nM		
C=CCNC(=O)Nc1ccc2ncc(-c3cn[nH]c3)cc2n1 [Compound 0056]	< 100 nM	100 to 1000 nM		
O=C(Nc1ccc2ncc(C3=CCOCC3)cc2n1)NC1CCCC1 [Compound 0205]	< 100 nM	< 100 nM		
CN1CCC(NC(=O)Nc2ccc3ncc(-c4cn[nH]c4)cc3n2)CC1 [Compound 0078]	100 to 1000 nM	1000 to 10000 nM		
